Experimental data as given in US11485742B2, “2-azaspiro[3.4]octane derivatives as M4 agonists” (NOVARTIS AG, priority 2019, dated 2022).

Tests used:
[1] = biological target: T1, human cloned CHRM4 receptor (Homo sapiens, UniProt P08173); experiment: CHRM4 Ca++ Flux Assay (M4_CHO cells, agonist mode); format: cell-based; conditions: for Emax: Percent Activity (PA), read-out: M4 FDSS PA %; for EC50: geometric mean if tested more than once, read-out: M4 FDSS EC50
T1 construct: expressed in transfected cells; host or cells: CHO-K1 (M4_CHO)
T1 sequence (P08173 1-479): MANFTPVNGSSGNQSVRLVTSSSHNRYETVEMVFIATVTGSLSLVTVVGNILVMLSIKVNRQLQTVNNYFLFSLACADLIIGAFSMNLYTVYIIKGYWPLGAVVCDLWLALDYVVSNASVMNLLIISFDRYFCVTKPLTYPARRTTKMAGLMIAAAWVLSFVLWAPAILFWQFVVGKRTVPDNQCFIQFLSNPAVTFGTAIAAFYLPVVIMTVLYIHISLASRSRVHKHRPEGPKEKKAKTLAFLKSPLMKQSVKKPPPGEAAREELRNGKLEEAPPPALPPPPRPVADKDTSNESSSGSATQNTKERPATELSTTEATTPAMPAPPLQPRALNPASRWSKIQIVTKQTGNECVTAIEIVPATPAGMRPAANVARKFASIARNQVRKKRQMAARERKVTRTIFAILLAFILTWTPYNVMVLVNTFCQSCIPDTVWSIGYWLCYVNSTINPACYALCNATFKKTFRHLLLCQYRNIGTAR
Outline: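 CHO-K1 cells stably expressing human M4 were dye-loaded, then held 60 min at RT in Ca/Mg-free HBSS buffer with 20 μM ATP. Ca++ traces were recorded over 3 min after an 11-point compound series in triplicate, agonist mode, with a four-parameter fit. Percent activity is relative to the carbachol EC100; repeat tests are geometric means.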

[2] = biological target: T2, human cloned CHRM5 receptor (Homo sapiens, UniProt P08912); experiment: CHRM5 Ca++ Flux Assay (M5_CHO cells, agonist mode); format: cell-based; conditions: for Emax: Percent Activity (PA) measured to EC100 of Carbachol, read-out: M5 FDSS PA %; for EC50: agonist mode, geometric mean if tested more than once, read-out: M5 FDSS EC50
T2 construct: expressed in transfected cells; host or cells: CHO (M5_CHO)
T2 sequence (P08912 1-532): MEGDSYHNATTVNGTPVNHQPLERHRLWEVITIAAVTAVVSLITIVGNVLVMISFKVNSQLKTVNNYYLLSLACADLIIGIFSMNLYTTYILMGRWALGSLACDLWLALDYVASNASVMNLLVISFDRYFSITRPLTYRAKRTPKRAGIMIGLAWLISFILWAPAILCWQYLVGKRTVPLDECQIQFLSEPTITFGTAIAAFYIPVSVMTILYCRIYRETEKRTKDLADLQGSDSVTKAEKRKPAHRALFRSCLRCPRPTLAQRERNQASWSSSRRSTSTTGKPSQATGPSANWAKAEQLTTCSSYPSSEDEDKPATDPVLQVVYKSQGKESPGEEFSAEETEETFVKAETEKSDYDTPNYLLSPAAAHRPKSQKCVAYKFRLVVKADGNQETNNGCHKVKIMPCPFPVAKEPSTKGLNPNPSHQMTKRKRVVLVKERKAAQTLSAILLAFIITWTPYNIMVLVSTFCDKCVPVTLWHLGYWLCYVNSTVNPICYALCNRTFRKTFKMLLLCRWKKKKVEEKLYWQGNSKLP
Outline: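 CHO-K1 cells stably expressing human M3 or M5 receptor, dye-loaded ≥1 h, treated with 11-point compound doses in triplicate; Ca++ flux read over 3 min (FDSS). Agonist-mode four-parameter fit; percent activity relative to carbachol EC100; repeat tests reported as geometric mean.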

SMILES	Emax [1] [%]	EC50 [1] [nM]	Emax [2] [%]	EC50 [2] [nM]
COC(C)(C)CCOc1ccc(F)cc1C1CCN([C@@H]2COC3(C2)CN(c2nnco2)C3)CC1 [Example 1K, (S)-7-(4-(5-fluoro-2-(3-methoxy-3-methylbutoxy)phenyl)piperidin-1-yl)-2-(1,3,4-oxadiazol-2-yl)-5-oxa-2-azaspiro[3.4]octane]	58	97	0	> 25000
COCCOc1ccc(F)cc1C1CCN([C@@H]2COC3(C2)CN(c2nnco2)C3)CC1 [Example 1L, (S)-7-(4-(5-fluoro-2-(2-methoxyethoxy)phenyl)piperidin-1-yl)-2-(1,3,4-oxadiazol-2-yl)-5-oxa-2-azaspiro[3.4]octane]	74	99	0	> 25000
Fc1ccc(OC2COCOC2)c(C2CCN([C@@H]3COC4(C3)CN(c3nnco3)C4)CC2)c1 [Example 1M, (S)-7-(4-(2-((1,3-dioxan-5-yl)oxy)-5-fluorophenyl)piperidin-1-yl)-2-(1,3,4-oxadiazol-2-yl)-5-oxa-2-azaspiro[3.4]octane]	79	94	0	> 25000
CC(C)(O)CCOc1ccc(F)cc1C1CCN([C@@H]2COC3(C2)CN(c2nnco2)C3)CC1 [Example 1N, (S)-4-(2-(1-(2-(1,3,4-oxadiazol-2-yl)-5-oxa-2-azaspiro[3.4]octan-7-yl)piperidin-4-yl)-4-fluorophenoxy)-2-methylbutan-2-ol]	63	133	0	> 25000
CC(C)(O)CCOc1cc(F)ccc1C1CCN([C@@H]2COC3(C2)CN(c2nnco2)C3)CC1 [Example 1T, (S)-4-(2-(1-(2-(1,3,4-oxadiazol-2-yl)-5-oxa-2-azaspiro[3.4]octan-7-yl)piperidin-4-yl)-5-fluorophenoxy)-2-methylbutan-2-ol]	45	157	0	> 25000
CC(C)(O)COc1ccc(F)cc1C1CCN([C@@H]2COC3(C2)CN(c2nnco2)C3)CC1 [Example 1U, (S)-1-(2-(1-(2-(1,3,4-oxadiazol-2-yl)-5-oxa-2-azaspiro[3.4]octan-7-yl)piperidin-4-yl)-4-fluorophenoxy)-2-methylpropan-2-ol]	73	90	0	> 25000
c1ccc(C2CCN([C@@H]3COC4(C3)CN(c3nnco3)C4)CC2)c(-c2ncco2)c1 [Example 1X, (S)-2-(1,3,4-oxadiazol-2-yl)-7-(4-(2-(oxazol-2-yl)phenyl)piperidin-1-yl)-5-oxa-2-azaspiro[3.4]octane]	84	112	0	> 25000
Cc1nnc(-c2ccccc2C2CCN([C@@H]3COC4(C3)CN(c3nnco3)C4)CC2)o1 [Example 1Y, (S)-7-(4-(2-(5-methyl-1,3,4-oxadiazol-2-yl)phenyl)piperidin-1-yl)-2-(1,3,4-oxadiazol-2-yl)-5-oxa-2-azaspiro[3.4]octane]	86	112	0	> 25000

These reach a lower EC50 [1]. Values come first.

Emax [1] [%]	EC50 [1] [nM]	Emax [2] [%]	EC50 [2] [nM]	SMILES
82	8	0	> 25000	Fc1ccc(OC2COC2)c(C2CCN([C@@H]3COC4(C3)CN(c3nnco3)C4)CC2)c1 [Example 1A, (S)-7-(4-(5-fluoro-2-(oxetan-3-yloxy)phenyl)piperidin-1-yl)-2-(1,3,4-oxadiazol-2-yl)-5-oxa-2-azaspiro[3.4]octane]
69	35	0	> 25000	Fc1ccc(OC[C@H]2CCOC2)c(C2CCN([C@@H]3COC4(C3)CN(c3nnco3)C4)CC2)c1 [Example 1I, (S)-7-(4-(5-fluoro-2-(((S)-tetrahydrofuran-3-yl)methoxy)phenyl)piperidin-1-yl)-2-(1,3,4-oxadiazol-2-yl)-5-oxa-2-azaspiro[3.4]octane]
79	86	0	> 25000	Fc1ccc(OCC2CCOCC2)c(C2CCN([C@@H]3COC4(C3)CN(c3nnco3)C4)CC2)c1 [Example 1J, (S)-7-(4-(5-fluoro-2-((tetrahydro-2H-pyran-4-yl)methoxy)phenyl)piperidin-1-yl)-2-(1,3,4-oxadiazol-2-yl)-5-oxa-2-azaspiro[3.4]octane]
89	26	0	> 25000	c1ccc(C2CCN([C@@H]3COC4(C3)CN(c3nnco3)C4)CC2)c(O[C@@H]2CCOC2)c1 [Example 1O, (S)-2-(1,3,4-oxadiazol-2-yl)-7-(4-(2-(((R)-tetrahydrofuran-3-yl)oxy)phenyl)piperidin-1-yl)-5-oxa-2-azaspiro[3.4]octane]
94	28	0	> 25000	c1ccc(C2CCN([C@@H]3COC4(C3)CN(c3nnco3)C4)CC2)c(OC2COC2)c1 [Example 1P, (S)-2-(1,3,4-oxadiazol-2-yl)-7-(4-(2-(oxetan-3-yloxy)phenyl)piperidin-1-yl)-5-oxa-2-azaspiro[3.4]octane]
79	52	0	> 25000	COc1ccccc1C1CCN([C@@H]2COC3(C2)CN(c2nnco2)C3)CC1 [Example 1Q, (S)-7-(4-(2-methoxyphenyl)piperidin-1-yl)-2-(1,3,4-oxadiazol-2-yl)-5-oxa-2-azaspiro[3.4]octane]
77	41	0	> 25000	Fc1cc(O[C@@H]2CCOC2)c(C2CCN([C@@H]3COC4(C3)CN(c3nnco3)C4)CC2)cc1F [Example 1R, (S)-7-(4-(4,5-difluoro-2-(((R)-tetrahydrofuran-3-yl)oxy)phenyl)piperidin-1-yl)-2-(1,3,4-oxadiazol-2-yl)-5-oxa-2-azaspiro[3.4]octane]
68	79	0	> 25000	COc1cc(F)ccc1C1CCN([C@@H]2COC3(C2)CN(c2nnco2)C3)CC1 [Example 1S, (S)-7-(4-(4-fluoro-2-methoxyphenyl)piperidin-1-yl)-2-(1,3,4-oxadiazol-2-yl)-5-oxa-2-azaspiro[3.4]octane]
83	35	0	> 25000	COc1ccc(F)cc1C1CCN([C@@H]2COC3(C2)CN(c2nnco2)C3)CC1 [Example 1V, (S)-7-(4-(5-fluoro-2-methoxyphenyl)piperidin-1-yl)-2-(1,3,4-oxadiazol-2-yl)-5-oxa-2-azaspiro[3.4]octane]
89	12	20	13800	c1ccc(C2CCN([C@@H]3COC4(C3)CN(c3nnco3)C4)CC2)c(-c2cncnc2)c1 [Example 1W, (S)-2-(1,3,4-oxadiazol-2-yl)-7-(4-(2-(pyrimidin-5-yl)phenyl)piperidin-1-yl)-5-oxa-2-azaspiro[3.4]octane]
79	24	0	> 25000	Fc1ccc(OCC2COC2)c(C2CCN([C@@H]3COC4(C3)CN(c3nncs3)C4)CC2)c1 [Example 2A, (S)-7-(4-(5-fluoro-2-(oxetan-3-ylmethoxy)phenyl)piperidin-1-yl)-2-(1,3,4-thiadiazol-2-yl)-5-oxa-2-azaspiro[3.4]octane]
71	25	0	> 25000	CC1(COc2ccc(F)cc2C2CCN([C@@H]3COC4(C3)CN(c3nncs3)C4)CC2)COC1 [Example 2B, (S)-7-(4-(5-fluoro-2-((3-methyloxetan-3-yl)methoxy)phenyl)piperidin-1-yl)-2-(1,3,4-thiadiazol-2-yl)-5-oxa-2-azaspiro[3.4]octane]
